Experimental data published in ChEMBL document CHEMBL5724914, “Linking interpersonal differences in gut microbiota composition and drug biotransformation activity” (2024).

Assays:
[1] = (§1) The drug is tested on Z-030 corresponding to mouse gut metagenome with ENA study accession number: PRJEB37062 and ENA sample accession number: ERS12561829 for biotransformation under anaerobic condition. The drug concentrations were measured over 9 timepoints collected between 0 and 24 hours of incubation by liquid-chromatography-coupled mass spectrometry (LC–MS); settings: 2 µM
[2] = as §1, with “Z-020” for “Z-030”, “rabbit” for “mouse”, “ERS12561819” for “ERS12561829”; settings: 2 µM
[3] = as §1, with “Z-014” for “Z-030”, “rat” for “mouse”, “ERS12561814” for “ERS12561829”; settings: 2 µM
[4] = as §1, with “Z-010” for “Z-030”, “to” for “to mouse gut”, “ERS12561810” for “ERS12561829”; settings: 2 µM
[5] = as §1, with “Z-007” for “Z-030”, “rat” for “mouse”, “ERS12561807” for “ERS12561829”; settings: 2 µM
[6] = as §1, with “Z-006” for “Z-030”, “ERS12561806” for “ERS12561829”; settings: 2 µM
[7] = as §1, with “WLS-240” for “Z-030”, “human” for “mouse”, “ERS12561773” for “ERS12561829”; settings: 2 µM
[8] = as §1, with “WLS-220” for “Z-030”, “human” for “mouse”, “ERS12561769” for “ERS12561829”; settings: 2 µM
[9] = as §1, with “WLS-082” for “Z-030”, “human” for “mouse”, “ERS12561751” for “ERS12561829”; settings: 2 µM
[10] = as §1, with “WLS-052” for “Z-030”, “human” for “mouse”, “ERS12561747” for “ERS12561829”; settings: 2 µM
[11] = as §1, with “WLS-039” for “Z-030”, “human” for “mouse”, “ERS12561746” for “ERS12561829”; settings: 2 µM
[12] = as §1, with “WLS-027” for “Z-030”, “human” for “mouse”, “ERS12561744” for “ERS12561829”; settings: 2 µM
[13] = human gut metagenome, 24 h, 2 µM
[14] = human gut metagenome, 24 h, 2 µM; remark: listed apart in the source
[15] = human gut metagenome, 24 h, 2 µM; remark: listed apart in the source
[16] = human gut metagenome, 24 h, 2 µM; remark: listed apart in the source
[17] = human gut metagenome, 24 h, 2 µM; remark: listed apart in the source
[18] = human gut metagenome, 24 h, 2 µM; remark: listed apart in the source
[19] = human gut metagenome, 24 h, 2 µM; remark: listed apart in the source
[20] = human gut metagenome, 24 h, 2 µM; remark: listed apart in the source
Further: call rule not given here.

SMILES | Bacterial Biotransformation [1] | Bacterial Biotransformation [2] | Bacterial Biotransformation [3] | Bacterial Biotransformation [4] | Bacterial Biotransformation [5] | Bacterial Biotransformation [6] | Bacterial Biotransformation [7] | Bacterial Biotransformation [8] | Bacterial Biotransformation [9] | Bacterial Biotransformation [10] | Bacterial Biotransformation [11] | Bacterial Biotransformation [12] | Bacterial Biotransformation [13] | Bacterial Biotransformation [14] | Bacterial Biotransformation [15] | Bacterial Biotransformation [16] | Bacterial Biotransformation [17] | Bacterial Biotransformation [18] | Bacterial Biotransformation [19] | Bacterial Biotransformation [20]
O=C(O)c1cc(/N=N/c2ccc(S(=O)(=O)Nc3ccccn3)cc2)ccc1O [SULFASALAZINE] | Compound metabolized | Compound metabolized | Compound metabolized | Compound metabolized | Compound metabolized | Compound metabolized | Compound metabolized | Compound metabolized | Compound metabolized | Compound NOT metabolized | Compound metabolized | Compound metabolized | Compound metabolized | Compound metabolized | Compound metabolized | Compound metabolized | Compound metabolized | Compound metabolized | Compound metabolized | Compound metabolized
C=CC[C@@H]1/C=C(\C)C[C@H](C)C[C@H](OC)[C@H]2O[C@@](O)(C(=O)C(=O)N3CCCC[C@H]3C(=O)O[C@H](/C(C)=C/[C@@H]3CC[C@@H](O)[C@H](OC)C3)[C@H](C)[C@@H](O)CC1=O)[C@H](C)C[C@@H]2OC.O [TACROLIMUS] | Compound NOT metabolized | Compound NOT metabolized | Compound NOT metabolized | Compound NOT metabolized | Compound NOT metabolized | Compound NOT metabolized | Compound metabolized | Compound metabolized | Compound metabolized | Compound metabolized | Compound metabolized | Compound metabolized | Compound metabolized | Compound NOT metabolized | Compound NOT metabolized | Compound metabolized | Compound metabolized | Compound metabolized | Compound metabolized | Compound metabolized
CCS(=O)(=O)CCn1c([N+](=O)[O-])cnc1C [TINIDAZOLE] | Compound metabolized | Compound metabolized | Compound metabolized | Compound metabolized | Compound metabolized | Compound metabolized | Compound metabolized | Compound metabolized | Compound metabolized | Compound metabolized | Compound metabolized | Compound metabolized | Compound metabolized | Compound metabolized | Compound metabolized | Compound metabolized | Compound metabolized | Compound metabolized | Compound NOT metabolized | Compound metabolized
COc1ccc(CN2CCNCC2)c(OC)c1OC.Cl.Cl [TRIMETAZIDINE DIHYDROCHLORIDE] | Compound NOT metabolized | Compound NOT metabolized | Compound NOT metabolized | Compound NOT metabolized | Compound NOT metabolized | Compound NOT metabolized | Compound NOT metabolized | Compound NOT metabolized | Compound NOT metabolized | Compound NOT metabolized | Compound NOT metabolized | Compound NOT metabolized | Compound NOT metabolized | Compound NOT metabolized | Compound NOT metabolized | Compound NOT metabolized | Compound NOT metabolized | Compound NOT metabolized | Compound NOT metabolized | Compound NOT metabolized
CN1[C@@H]2CC[C@H]1C[C@@H](OC(=O)c1c[nH]c3ccccc13)C2 [TROPISETRON] | Compound NOT metabolized | Compound NOT metabolized | Compound NOT metabolized | Compound NOT metabolized | Compound NOT metabolized | Compound NOT metabolized | Compound NOT metabolized | Compound NOT metabolized | Compound NOT metabolized | Compound NOT metabolized | Compound NOT metabolized | Compound NOT metabolized | Compound NOT metabolized | Compound NOT metabolized | Compound NOT metabolized | Compound NOT metabolized | Compound NOT metabolized | Compound metabolized | Compound NOT metabolized | Compound NOT metabolized
